Source: article PMC11231141, “Ube3a unsilencer for the potential treatment of Angelman syndrome” (Nature Communications, 2024)
Read-outs that look alike come from different tables or passages of the source.

Experiments:
paternal UBE3A-YFP = paternal UBE3A-YFP unsilencing, high-content imaging in mouse primary neurons (Ube3a m+/pYFP); type: cell-based; conditions: for Emax: Neuron, highest concentration with at least 90% neurons alive, read-out: EMAX (% patUBE3A-YFP+)
Protocol: We aimed to identify novel unsilencers of paternal Ube3a by employing a previously developed high-content small molecule screen. This screen was performed in primary neurons derived from knock-in mice harboring a yellow fluorescent protein (YFP) fused to the paternal allele of Ube3a[25], allowing for fluorescence-based identification of the paternal allele-specific expression of UBE3A-YFP (detected by a GFP antibody enhancement) (Fig. 1a and Supplementary Table 1). We screened >2800 compounds from a Pfizer chemogenetic library, which contains small molecules selected to cover a broad spectrum of pharmacological space. We screened small molecules at 1 μM concentration and used 0.3 μM topotecan, a topoisomerase inhibitor that can downregulate the Ube3a-ATS and unsilence the paternal Ube3a, as a positive control (Fig. 1b)[10]. Small molecules that increase the UBE3A-YFP signal represent putative paternal Ube3a unsilencers.
Immunofluorescence for high-content imaging analysis was performed as previously described with slight modifications. Following drug treatment at DIV7, primary neurons were fixed at DIV10 with 4% paraformaldehyde in PBS at room temperature (RT) for 10 min. After three brief washes in PBS, neurons were permeabilized with PBS/1% Triton-X-100 at RT for 10 min, followed by blocking with PBS including 5% normal goat serum and 0.2% Triton-X-100 (NGST) at RT. […] All acquired images were analyzed by CellProfiler[48]. The mean GFP signal from each drug-treated well was normalized to the average mean GFP signal from DMSO-treated neurons. […] Fluorescent images were acquired using a Nikon Ti2 eclipse fluorescence microscope (Nikon Instruments Inc.) and analyzed using Nikon NIS-Elements software (Nikon Instruments Inc.). Antibody-enhanced UBE3A-YFP fluorescence intensities were determined from DAPI and NeuN double-positive neurons in drug-treated wells and normalized to neurons in DMSO-treated wells. The cytotoxicity of a compound was determined by calculating the percentage of neurons (DAPI and NeuN double-positive cells) alive in drug-treated wells compared to the DMSO-treated wells. For determining the effectiveness of unsilencing, the percent neurons expressing GFP signal in neurons (DAPI and NeuN double-positive cells) in drug-treated wells was thresholded such that the percent GFP positive neurons in DMSO-treated wells was set to ~5%. Concentrations where more than 10% of neurons were dead compared to DMSO-treated wells were manually removed and the last included data point was set as a maximum efficacy. Sigmoidal curve fitting for the dose-response analysis was performed using GraphPad Prism software version 8.0 (GraphPad Software).

UBE3A protein [1] = experiment: western blot of UBE3A protein in wild-type primary neurons; type: cell-based, mouse
Protocol: 2’ MOE gapmer antisense oligonucleotides (ASOs) designed to target mouse Cdk2 sequence […], Cdk5 sequence […], Top1 sequence […], and scrambled […] sequence as a negative control (Integrated DNA Technologies) were formulated in water and added to cultured cortical neurons grown on 6-well plates at DIV5 at a final concentration of 10 μM. Neurons were further cultured and treated at DIV7 with vehicle (0.1% DMSO) or the indicated compounds for 72 h. For western blot analysis, neurons were washed once with PBS and then lysed using RIPA buffer (50 mM Tris-HCl pH 8.0, 150 mM NaCl, 1% NP−40, 0.5% Na-deoxycholate, 0.5% SDS) and protease inhibitor cocktail (P8340, MilliporeSigma) on ice. […]
from the paternal allele in mouse wild-type primary neurons. Primar y cortical neurons derived from wild-type (WT) mice were treated either with 0.1% DMSO as a vehicle, 1 µM ( S)-P HA53 35 33 , or 0.3 µ M to po te can for 72 hours at DIV7. Following the treatment, the relative quantity of ( a) Ube3a […]
determined through western blotting, with the data averaged across three individual experiments, depicted in (c). […]

Pantr1, Airn = experiment: quantitative RT-PCR of antisense lncRNA transcripts in cultured mouse neurons; type: cell-based; conditions: 1 µM (S)-PHA533533 or 0.3 µM topotecan, 72 h, vs DMSO
From the text: […]. […] […]. […] […]. […] […].

CDK2/cyclin E = system: CDK2/cyclin E; parameters: method as in PMID 15828833; conditions: read-out: IC50 against CDK2/cyclin E; cited from earlier work
Ube3a-ATS = experiment: quantitative RT-PCR of Ube3a-ATS in Ube3a m-/p+ primary neurons; type: cell-based, mouse; conditions: 72 h at DIV7; 0.3 µM topotecan, 1 µM (S)- or (R)-PHA533533, 0.1 µM 2, 0.1 µM 3, 0.3 µM (±)-4, 5 µM (S,R)-5
Protocol: Next, 1 ml of Neurobasal Plus medium (A3582901, ThermoFisher) containing 5% FBS (TMS-013-B; MilliporeSigma) was added to the cortical mixture to deactivate the papain and subsequently triturated. […] Isolated cortical neurons were plated onto poly-D-lysine coated 384-well plates at 2 × 10^4 cell/well for screening and dose-response assays, or 6-well plates at 1 × 10^6 cell/well for molecular and biochemical assays (western blot, ASO-dependent knock-down, and quantitative RT-PCR).

UBE3A protein [2] = experiment: western blot of UBE3A protein in Ube3a m-/p+ primary neurons; type: cell-based, mouse; conditions: 72 h at DIV7, 0.3 µM topotecan, 1 µM (S)-PHA533533, 0.1 µM 3, 0.3 µM (±)-4
Protocol: 2’ MOE gapmer antisense oligonucleotides (ASOs) designed to target mouse Cdk2 sequence […], Cdk5 sequence […], Top1 sequence […], and scrambled […] sequence as a negative control (Integrated DNA Technologies) were formulated in water and added to cultured cortical neurons grown on 6-well plates at DIV5 at a final concentration of 10 μM. Neurons were further cultured and treated at DIV7 with vehicle (0.1% DMSO) or the indicated compounds for 72 h. For western blot analysis, neurons were washed once with PBS and then lysed using RIPA buffer (50 mM Tris-HCl pH 8.0, 150 mM NaCl, 1% NP−40, 0.5% Na-deoxycholate, 0.5% SDS) and protease inhibitor cocktail (P8340, MilliporeSigma) on ice.

Row | SMILES | paternal UBE3A-YFP immunofluorescent signal (paternal UBE3A-YFP) | Emax (paternal UBE3A-YFP; Mus musculus, 72 h, mean ± SEM) [%] | UBE3A protein levels in WT neurons (UBE3A protein [1]) | expression levels of Pantr1 or Airn (Pantr1, Airn) | IC50 (CDK2/cyclin E) [nM] | paternal UBE3A-YFP immunofluorescent signal (paternal UBE3A-YFP; 0.3 μM topotecan, 1 μM (R)- or (S)-PHA533533, 72 h) | EC50 (paternal UBE3A-YFP; Mus musculus, Primary neuron, 72 h, mean ± SEM, n = 3) [nM] | relative quantity of Ube3a-ATS vs DMSO (Ube3a-ATS) | UBE3A protein levels vs DMSO (UBE3A protein [2]) | UBE3A protein levels in WT neurons (UBE3A protein [1]; 1 µM (S)-PHA533533 or 0.3 µM topotecan, 72 h at DIV7)
1 | C[C@H](C(=O)Nc1cc(C2CC2)[nH]n1)c1ccc(N2CCCC2=O)cc1 [(S)-PHA533533] | high levels of paternal UBE3A-YFP | 80 ± 8.41 | significantly increased | neither topotecan nor (S)-PHA533533 treatments changed the expression levels | 55 |  |  |  |  | 
2 | CC[C@@]1(O)C(=O)OCc2c1cc1n(c2=O)Cc2cc3c(CN(C)C)c(O)ccc3nc2-1 [Topotecan, reference compound] |  | 66.31 ± 0.45 |  | neither topotecan nor (S)-PHA533533 treatments changed the expression levels |  | high levels of paternal UBE3A-YFP | 80 ± 20 | downregulated | significantly increased | significantly increased
